Measured values from BigSolDB 2.1.

Details: in ethyl acetate, 298.15 K

Row | Structure (SMILES) | solubility (mole fraction)
1 | Oc1ccc(/C=C/c2cc(O)cc(O)c2)cc1 | 0.00895
2 | O=c1c(O)c(-c2ccc(O)cc2)oc2cc(O)cc(O)c12 | 0.00452
3 | OC[C@H]1O[C@@H](Oc2cc(O)cc(/C=C/c3ccc(O)cc3)c2)[C@H](O)[C@@H](O)[C@@H]1O | 6.73e-05
4 | O=c1c(O)c(-c2ccc(O)c(O)c2)oc2cc(O)cc(O)c12 | 0.00223

Same assay, conditions: in methanol, 298.15 K

Row | Structure (SMILES) | solubility (mole fraction)
5 | Oc1ccc(/C=C/c2cc(O)cc(O)c2)cc1 | 0.0189
6 | O=c1c(O)c(-c2ccc(O)cc2)oc2cc(O)cc(O)c12 | 0.00324
7 | OC[C@H]1O[C@@H](Oc2cc(O)cc(/C=C/c3ccc(O)cc3)c2)[C@H](O)[C@@H](O)[C@@H]1O | 0.0086
8 | O=c1c(O)c(-c2ccc(O)c(O)c2)oc2cc(O)cc(O)c12 | 0.00144

Same assay, conditions: in n-butyl acetate, 298.15 K

Row | Structure (SMILES) | solubility (mole fraction)
9 | Oc1ccc(/C=C/c2cc(O)cc(O)c2)cc1 | 0.00463
10 | O=c1c(O)c(-c2ccc(O)cc2)oc2cc(O)cc(O)c12 | 0.0024
11 | OC[C@H]1O[C@@H](Oc2cc(O)cc(/C=C/c3ccc(O)cc3)c2)[C@H](O)[C@@H](O)[C@@H]1O | 1.96e-05
12 | O=c1c(O)c(-c2ccc(O)c(O)c2)oc2cc(O)cc(O)c12 | 0.00184

Same assay, conditions: in n-propyl acetate, 298.15 K

Row | Structure (SMILES) | solubility (mole fraction)
13 | Oc1ccc(/C=C/c2cc(O)cc(O)c2)cc1 | 0.00596
14 | O=c1c(O)c(-c2ccc(O)cc2)oc2cc(O)cc(O)c12 | 0.00275
15 | OC[C@H]1O[C@@H](Oc2cc(O)cc(/C=C/c3ccc(O)cc3)c2)[C@H](O)[C@@H](O)[C@@H]1O | 3.37e-05
16 | O=c1c(O)c(-c2ccc(O)c(O)c2)oc2cc(O)cc(O)c12 | 0.0019
